Laboratory results as given in patent US20160213742A1, “COMPOSITIONS AND METHODS FOR THE TREATMENT OF FUNGAL INFECTIONS” (priority 2013, published 2016).

Columns and labels:
Type in all cases: cell-based
A. fumigatus MYA-3626 = assay: MEC assay (Example 32); conditions: MEC values (24 h), rounded/compact hyphal morphology
Method: (§1) MIC and MEC assays were run as described in Example 31 with the following exceptions. Starting solutions of all antifungal agents were prepared in 100% DMSO. Stock concentrations were made at 50× the highest final assay concentration and serially diluted 2-fold, 16 times in a 96-well PCR plate (VWR 83007-374). Candida and Aspergillus suspensions from Sabouraud dextrose agar plate cultures were prepared in 0.85% saline at 0.5 McFarland standard (˜0.1 OD530 nm). Candida suspensions were diluted 1:500 in RPMI (MP Biomedicals, cat no. 1060124; buffered with MOPS and adjusted with NaOH to pH 7.0) to a concentration of ˜0.5-2.5×10^3 CFU/mL and Aspergillus suspensions were diluted 1:50 in RPMI to 0.4-5×10^4 CFU/mL final concentration. 98 μL of each cell suspension in RPMI were added to test wells in a 96-well assay plate (Costar cat. no. 3370). A Beckman Multimek 96 liquid handling robot was used to dispense 2 μL of each 50× stock compound into the plate containing 98 μL of each strain in RPMI (2% final solvent concentration). Plates were shaken then incubated at 35° C. for 24-48 h prior to reading. MIC values were read visually at 50% growth inhibition for echinocandins (24 h) and at 100% growth inhibition for amphotericin B (48 h). MEC values (24 h) were read with the aid of a microscope at the lowest echinocandin concentration where rounded/compact hyphal morphology was observed.

A. flavus ATCC MYA-3631 = assay: MEC assay (Example 32); conditions: MEC values (24 h), rounded/compact hyphal morphology
Method: as §1

A. niger ATCC 16404 = assay: MEC assay (Example 32); conditions: MEC values (24 h), rounded/compact hyphal morphology
Method: as §1

A. fumigatus MYA-4609 = assay: MEC assay (Example 32); conditions: MEC values (24 h), rounded/compact hyphal morphology
Method: as §1

A. fumigatus ATCC 13073 = assay: MEC assay (Example 32); conditions: MEC values (24 h), rounded/compact hyphal morphology
Method: as §1

C. albicans ATCC 90028 = conditions: C. albicans ATCC 90028; read at 50% growth inhibition for echinocandins (24 h), 100% for amphotericin B (48 h)
Method: as §1

C. krusei ATCC 14243 = conditions: C. krusei ATCC 14243; read at 50% growth inhibition for echinocandins (24 h), 100% for amphotericin B (48 h)
Method: as §1

[1] = system: C. parapsilosis ATCC 22019; conditions: C. parapsilosis ATCC 22019; read at 50% growth inhibition for echinocandins (24 h), 100% for amphotericin B (48 h)
Method: as §1

C. glabrata ATCC 90030 = conditions: C. glabrata ATCC 90030; read at 50% growth inhibition for echinocandins (24 h), 100% for amphotericin B (48 h)
Method: as §1

C. tropicalis ATCC 750 = conditions: C. tropicalis ATCC 750; read at 50% growth inhibition for echinocandins (24 h), 100% for amphotericin B (48 h)
Method: as §1

“caspofungin acetate [reference compound]” was tested. Which MEC (A. fumigatus MYA-3626) did it give?
Its MEC is 0.06 µg/mL.

What about the MEC (A. flavus ATCC MYA-3631) of the same substance?
Its MEC is 0.06 µg/mL.

And the MEC (A. niger ATCC 16404)?
The MEC was 0.06 µg/mL.

And the MEC (A. fumigatus MYA-4609)?
The MEC was 0.06 µg/mL.

And the MEC (A. fumigatus ATCC 13073)?
The MEC was 0.03 µg/mL.

And the MIC (C. albicans ATCC 90028)?
Its MIC is 0.125 µg/mL.

And the MIC (C. krusei ATCC 14243)?
Its MIC is 0.25 µg/mL.

What about the MIC [1] of the same substance?
The MIC was 0.5 µg/mL.

What about the MIC (C. glabrata ATCC 90030) of the same substance?
The MIC was 0.25 µg/mL.

And the MIC (C. tropicalis ATCC 750)?
The MIC was 0.125 µg/mL.
